# Assay results reported in ChEMBL document CHEMBL2331553, “Discovery of N-[[1-[2-(tert-butylcarbamoylamino)ethyl]-4-(hydroxymethyl)-4-piperidyl]methyl]-3,5-dichloro-benzamide as a selective T-type calcium channel (Cav3.2) inhibitor” (Bioorg Med Chem Lett, 2013).
# pIC50: −log10 of the molar value.
# Key:
# [1] = target: T1, Voltage-dependent T-type calcium channel subunit alpha-1H (Homo sapiens, UniProt O95180); test: Inhibition of human T-type calcium channel Cav3.2 expressed in T-Rex293 cells by whole cell patch clamp assay; assay type: cell-based, HEK293
# T1 sequence (O95180 whole entry, the tested form may be a part): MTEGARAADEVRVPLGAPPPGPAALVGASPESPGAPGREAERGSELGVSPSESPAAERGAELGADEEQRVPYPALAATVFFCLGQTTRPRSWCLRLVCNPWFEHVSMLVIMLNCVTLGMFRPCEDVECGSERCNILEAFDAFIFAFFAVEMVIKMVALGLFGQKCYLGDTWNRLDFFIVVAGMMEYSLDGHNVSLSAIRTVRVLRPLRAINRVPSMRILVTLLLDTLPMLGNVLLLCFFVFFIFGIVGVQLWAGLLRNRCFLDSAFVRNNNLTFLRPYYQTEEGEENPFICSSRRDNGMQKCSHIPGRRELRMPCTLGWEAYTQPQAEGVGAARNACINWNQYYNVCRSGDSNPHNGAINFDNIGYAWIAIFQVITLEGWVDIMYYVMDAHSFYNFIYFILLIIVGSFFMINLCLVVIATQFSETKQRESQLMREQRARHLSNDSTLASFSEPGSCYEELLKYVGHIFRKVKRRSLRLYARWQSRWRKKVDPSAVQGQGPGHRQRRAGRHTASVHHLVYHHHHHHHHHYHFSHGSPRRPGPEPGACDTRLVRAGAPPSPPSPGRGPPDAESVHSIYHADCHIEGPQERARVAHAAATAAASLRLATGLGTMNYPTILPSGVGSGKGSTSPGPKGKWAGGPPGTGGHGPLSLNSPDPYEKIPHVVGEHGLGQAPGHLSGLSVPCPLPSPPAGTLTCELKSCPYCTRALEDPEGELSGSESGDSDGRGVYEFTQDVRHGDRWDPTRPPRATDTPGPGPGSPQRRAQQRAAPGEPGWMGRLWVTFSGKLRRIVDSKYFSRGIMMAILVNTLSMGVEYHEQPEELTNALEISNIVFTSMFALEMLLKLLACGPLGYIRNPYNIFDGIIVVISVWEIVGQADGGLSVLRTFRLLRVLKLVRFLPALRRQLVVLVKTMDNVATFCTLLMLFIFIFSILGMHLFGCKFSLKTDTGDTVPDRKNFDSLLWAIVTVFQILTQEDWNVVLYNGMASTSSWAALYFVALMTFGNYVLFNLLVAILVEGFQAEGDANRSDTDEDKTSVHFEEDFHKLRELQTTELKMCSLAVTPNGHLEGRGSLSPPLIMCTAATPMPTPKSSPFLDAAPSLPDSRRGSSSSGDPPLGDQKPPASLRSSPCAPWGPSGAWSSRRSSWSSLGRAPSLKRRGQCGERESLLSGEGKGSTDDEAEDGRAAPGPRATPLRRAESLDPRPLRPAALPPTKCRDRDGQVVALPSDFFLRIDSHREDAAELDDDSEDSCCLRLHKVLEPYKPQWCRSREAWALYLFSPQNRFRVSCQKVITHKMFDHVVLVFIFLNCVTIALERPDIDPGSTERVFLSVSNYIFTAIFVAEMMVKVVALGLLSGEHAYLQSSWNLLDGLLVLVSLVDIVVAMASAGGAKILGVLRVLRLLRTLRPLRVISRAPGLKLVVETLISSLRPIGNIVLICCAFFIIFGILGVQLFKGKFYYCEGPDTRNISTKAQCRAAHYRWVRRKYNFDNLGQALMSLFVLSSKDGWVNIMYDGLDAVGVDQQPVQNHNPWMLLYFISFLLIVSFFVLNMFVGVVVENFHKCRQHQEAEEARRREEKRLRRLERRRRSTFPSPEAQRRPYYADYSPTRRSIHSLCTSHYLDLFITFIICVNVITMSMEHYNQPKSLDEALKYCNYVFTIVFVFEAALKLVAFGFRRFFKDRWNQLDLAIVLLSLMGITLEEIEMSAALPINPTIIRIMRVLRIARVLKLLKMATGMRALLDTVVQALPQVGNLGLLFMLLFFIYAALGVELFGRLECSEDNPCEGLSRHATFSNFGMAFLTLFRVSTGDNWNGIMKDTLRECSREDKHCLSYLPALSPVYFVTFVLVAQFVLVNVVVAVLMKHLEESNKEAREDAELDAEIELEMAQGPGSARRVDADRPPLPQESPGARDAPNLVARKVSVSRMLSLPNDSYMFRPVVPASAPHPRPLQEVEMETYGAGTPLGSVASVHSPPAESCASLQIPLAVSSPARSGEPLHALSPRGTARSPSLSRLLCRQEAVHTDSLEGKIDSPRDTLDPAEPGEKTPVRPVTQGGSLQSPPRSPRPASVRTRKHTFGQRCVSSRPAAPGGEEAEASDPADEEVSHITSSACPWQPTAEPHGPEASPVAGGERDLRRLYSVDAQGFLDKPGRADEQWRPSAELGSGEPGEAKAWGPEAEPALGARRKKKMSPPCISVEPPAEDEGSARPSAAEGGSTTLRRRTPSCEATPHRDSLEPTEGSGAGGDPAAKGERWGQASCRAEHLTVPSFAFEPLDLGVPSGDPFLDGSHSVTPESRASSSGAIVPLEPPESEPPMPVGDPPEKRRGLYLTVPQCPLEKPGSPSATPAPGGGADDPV
# [2] = Ratio of unbound concentration in brain to unbound concentration in plasma in Sprague-Dawley rat at 2 umol/kg/hr, iv administered as infusion measured after 4 hrs; assay type: ADME, organism-based; settings: brain and plasma (unbound concentrations), read-out: K(p,uu,brain)
# [3] = Intrinsic clearance in human liver microsomes at 1 mg/ml after 45 mins; assay type: ADME, Microsome; settings: read-out: CLH
# Cytochrome P450 2D6 = Cytochrome P450 2D6 (Homo sapiens, UniProt P10635); test: Inhibition of human recombinant CYP2D6-mediated 7-methoxy-4(aminomethyl)-coumarine degradation; assay type: ADME
# Chain of Cytochrome P450 2D6 (P10635 whole entry): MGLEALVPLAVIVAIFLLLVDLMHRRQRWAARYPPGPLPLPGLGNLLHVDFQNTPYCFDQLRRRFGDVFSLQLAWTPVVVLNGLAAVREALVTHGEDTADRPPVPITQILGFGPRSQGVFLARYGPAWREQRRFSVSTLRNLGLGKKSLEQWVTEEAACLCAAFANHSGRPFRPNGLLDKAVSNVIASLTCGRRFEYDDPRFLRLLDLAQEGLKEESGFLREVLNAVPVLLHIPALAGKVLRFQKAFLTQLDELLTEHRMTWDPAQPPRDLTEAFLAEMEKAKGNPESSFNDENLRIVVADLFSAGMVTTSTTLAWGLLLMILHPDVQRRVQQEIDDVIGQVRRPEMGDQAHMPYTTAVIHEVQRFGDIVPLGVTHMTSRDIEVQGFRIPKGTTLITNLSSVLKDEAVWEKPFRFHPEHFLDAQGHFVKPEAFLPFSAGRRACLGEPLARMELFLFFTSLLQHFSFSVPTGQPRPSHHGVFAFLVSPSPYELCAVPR
# [4] = target: Voltage-gated inwardly rectifying potassium channel KCNH2 (Homo sapiens, UniProt Q12809); test: Inhibition of human ERG expressed in CHO cells by IONWORKS assay; assay type: cell-based
# Chain of Voltage-gated inwardly rectifying potassium channel KCNH2 (Q12809 whole entry): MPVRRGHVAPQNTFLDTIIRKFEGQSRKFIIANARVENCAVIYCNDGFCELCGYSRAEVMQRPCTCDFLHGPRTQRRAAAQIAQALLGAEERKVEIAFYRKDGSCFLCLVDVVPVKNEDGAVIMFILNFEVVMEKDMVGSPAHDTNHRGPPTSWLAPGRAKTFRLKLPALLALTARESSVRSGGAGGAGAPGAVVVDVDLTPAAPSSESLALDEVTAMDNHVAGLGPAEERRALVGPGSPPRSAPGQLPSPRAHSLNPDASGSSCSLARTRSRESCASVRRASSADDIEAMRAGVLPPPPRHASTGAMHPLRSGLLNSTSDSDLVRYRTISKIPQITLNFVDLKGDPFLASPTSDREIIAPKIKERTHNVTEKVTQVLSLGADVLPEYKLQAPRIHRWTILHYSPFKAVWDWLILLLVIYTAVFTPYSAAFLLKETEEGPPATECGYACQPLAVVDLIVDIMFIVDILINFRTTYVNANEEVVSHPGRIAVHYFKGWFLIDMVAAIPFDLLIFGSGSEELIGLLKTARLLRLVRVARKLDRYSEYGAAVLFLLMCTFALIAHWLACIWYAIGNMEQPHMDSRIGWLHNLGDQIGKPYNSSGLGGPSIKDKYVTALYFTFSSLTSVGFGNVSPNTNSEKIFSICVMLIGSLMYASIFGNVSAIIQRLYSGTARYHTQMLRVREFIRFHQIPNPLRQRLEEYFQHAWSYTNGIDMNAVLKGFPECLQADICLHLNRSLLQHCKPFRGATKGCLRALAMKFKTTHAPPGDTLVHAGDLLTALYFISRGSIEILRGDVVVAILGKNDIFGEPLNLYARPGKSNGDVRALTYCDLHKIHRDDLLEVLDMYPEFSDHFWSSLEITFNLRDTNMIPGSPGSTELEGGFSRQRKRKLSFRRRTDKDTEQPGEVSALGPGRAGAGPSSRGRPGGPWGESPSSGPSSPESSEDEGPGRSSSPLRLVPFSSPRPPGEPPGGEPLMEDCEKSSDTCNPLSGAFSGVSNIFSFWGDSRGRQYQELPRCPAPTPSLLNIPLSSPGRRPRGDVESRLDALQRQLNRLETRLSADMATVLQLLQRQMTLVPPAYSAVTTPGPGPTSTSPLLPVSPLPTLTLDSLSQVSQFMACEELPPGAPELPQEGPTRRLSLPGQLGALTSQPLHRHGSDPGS
# Liver microsomes = test: Drug metabolism in human liver microsomes assessed as glutathione-adduct reactive metabolite formation at 1 mg/ml after 30 mins; assay type: ADME, Microsome; settings: 0.5 h
# [5] = target: Voltage-dependent L-type calcium channel subunit alpha-1C (Homo sapiens, UniProt Q13936); test: Inhibition of calcium channel Cav1.2 (unknown origin) expressed in CHO cells by IONWORKS patch clamp assay; assay type: cell-based
# [6] = Clearance in beagle dog at 1 mg/kg, iv; assay type: ADME, organism-based, Canis lupus familiaris; design: dose 1 mg/kg, route intravenous; settings: in vivo
# [7] = target: T1, Voltage-dependent T-type calcium channel subunit alpha-1H; test: Inhibition of T-type calcium channel Cav3.2 (unknown origin) by IONWORKS assay
# [8] = target: Sodium channel protein type 5 subunit alpha (Homo sapiens, UniProt Q14524); test: Inhibition of human Nav1.5 channel expressed in CHO cells by IONWORKS patch clamp assay; assay type: cell-based
# [9] = target: T2, A-type voltage-gated potassium channel KCND3 (Homo sapiens, UniProt Q9UK17); test: Inhibition of human Kv4.3 channel expressed in CHO cells by IONWORKS patch clamp assay; assay type: cell-based
# T2 sequence (Q9UK17 whole entry): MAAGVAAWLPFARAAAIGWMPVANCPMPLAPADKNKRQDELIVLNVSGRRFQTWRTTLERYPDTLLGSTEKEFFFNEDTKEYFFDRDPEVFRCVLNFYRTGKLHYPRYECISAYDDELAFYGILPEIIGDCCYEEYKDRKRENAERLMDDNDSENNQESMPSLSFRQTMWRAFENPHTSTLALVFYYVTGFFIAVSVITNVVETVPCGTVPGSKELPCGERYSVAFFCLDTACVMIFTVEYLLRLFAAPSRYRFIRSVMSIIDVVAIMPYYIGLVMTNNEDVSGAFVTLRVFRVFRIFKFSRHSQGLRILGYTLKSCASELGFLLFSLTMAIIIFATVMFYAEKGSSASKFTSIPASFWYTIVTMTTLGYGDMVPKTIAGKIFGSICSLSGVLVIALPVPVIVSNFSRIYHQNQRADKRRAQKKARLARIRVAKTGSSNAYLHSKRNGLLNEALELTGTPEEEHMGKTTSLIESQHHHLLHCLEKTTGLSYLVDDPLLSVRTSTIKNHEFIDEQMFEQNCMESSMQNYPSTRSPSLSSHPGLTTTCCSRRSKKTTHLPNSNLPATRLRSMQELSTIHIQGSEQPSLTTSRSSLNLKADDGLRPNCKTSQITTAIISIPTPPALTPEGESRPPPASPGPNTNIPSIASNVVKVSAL
# [10] = Solubility of the compound at pH 7.4; assay type: physicochemical; settings: buffer
# Canis familiaris = test: Cardioprotective activity in iv dosed beagle dog atrial fibrillation model assessed as reduction in heart rate administered as infusion for over 20 mins followed by 60-mins washout period by ECG analysis relative to control; assay type: functional, organism-based; settings: Canis lupus familiaris
# [11] = target: Voltage-gated potassium channel, IKs; KCNQ1(Kv7.1)/KCNE1(MinK) (Homo sapiens, UniProt P15382+P51787); test: Inhibition of human IKs channel expressed in CHO cells by IONWORKS patch clamp assay; assay type: cell-based
# Chain of Voltage-gated potassium channel, IKs; KCNQ1(Kv7.1)/KCNE1(MinK) (P51787 whole entry): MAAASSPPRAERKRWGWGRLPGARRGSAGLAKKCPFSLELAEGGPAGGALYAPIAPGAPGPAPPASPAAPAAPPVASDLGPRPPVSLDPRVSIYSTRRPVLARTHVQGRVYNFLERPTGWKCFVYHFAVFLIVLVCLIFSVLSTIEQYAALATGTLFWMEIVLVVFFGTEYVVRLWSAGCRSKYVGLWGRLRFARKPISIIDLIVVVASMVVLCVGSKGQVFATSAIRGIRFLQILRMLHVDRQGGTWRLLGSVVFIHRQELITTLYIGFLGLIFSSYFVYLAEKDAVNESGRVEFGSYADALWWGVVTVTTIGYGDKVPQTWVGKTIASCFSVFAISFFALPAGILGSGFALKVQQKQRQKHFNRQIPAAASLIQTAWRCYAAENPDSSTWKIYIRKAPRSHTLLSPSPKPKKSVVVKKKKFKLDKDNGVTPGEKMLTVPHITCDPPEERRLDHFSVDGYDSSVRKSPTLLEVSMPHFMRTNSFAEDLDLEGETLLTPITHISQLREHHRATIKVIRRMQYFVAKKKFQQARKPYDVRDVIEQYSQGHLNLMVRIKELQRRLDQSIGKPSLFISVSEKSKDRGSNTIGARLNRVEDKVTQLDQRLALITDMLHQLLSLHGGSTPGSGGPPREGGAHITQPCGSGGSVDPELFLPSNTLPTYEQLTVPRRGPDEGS
# [12] = Oral bioavailability in beagle dog at 3 mg/kg; assay type: ADME, organism-based, Canis lupus familiaris; settings: in vivo
# [13] = target: T3, Potassium/sodium hyperpolarization-activated cyclic nucleotide-gated channel 4 (Homo sapiens, UniProt Q9Y3Q4); test: Inhibition of human HCN4 channel expressed in CHO cells by IONWORKS patch clamp assay; assay type: cell-based
# T3 sequence (Q9Y3Q4 whole entry): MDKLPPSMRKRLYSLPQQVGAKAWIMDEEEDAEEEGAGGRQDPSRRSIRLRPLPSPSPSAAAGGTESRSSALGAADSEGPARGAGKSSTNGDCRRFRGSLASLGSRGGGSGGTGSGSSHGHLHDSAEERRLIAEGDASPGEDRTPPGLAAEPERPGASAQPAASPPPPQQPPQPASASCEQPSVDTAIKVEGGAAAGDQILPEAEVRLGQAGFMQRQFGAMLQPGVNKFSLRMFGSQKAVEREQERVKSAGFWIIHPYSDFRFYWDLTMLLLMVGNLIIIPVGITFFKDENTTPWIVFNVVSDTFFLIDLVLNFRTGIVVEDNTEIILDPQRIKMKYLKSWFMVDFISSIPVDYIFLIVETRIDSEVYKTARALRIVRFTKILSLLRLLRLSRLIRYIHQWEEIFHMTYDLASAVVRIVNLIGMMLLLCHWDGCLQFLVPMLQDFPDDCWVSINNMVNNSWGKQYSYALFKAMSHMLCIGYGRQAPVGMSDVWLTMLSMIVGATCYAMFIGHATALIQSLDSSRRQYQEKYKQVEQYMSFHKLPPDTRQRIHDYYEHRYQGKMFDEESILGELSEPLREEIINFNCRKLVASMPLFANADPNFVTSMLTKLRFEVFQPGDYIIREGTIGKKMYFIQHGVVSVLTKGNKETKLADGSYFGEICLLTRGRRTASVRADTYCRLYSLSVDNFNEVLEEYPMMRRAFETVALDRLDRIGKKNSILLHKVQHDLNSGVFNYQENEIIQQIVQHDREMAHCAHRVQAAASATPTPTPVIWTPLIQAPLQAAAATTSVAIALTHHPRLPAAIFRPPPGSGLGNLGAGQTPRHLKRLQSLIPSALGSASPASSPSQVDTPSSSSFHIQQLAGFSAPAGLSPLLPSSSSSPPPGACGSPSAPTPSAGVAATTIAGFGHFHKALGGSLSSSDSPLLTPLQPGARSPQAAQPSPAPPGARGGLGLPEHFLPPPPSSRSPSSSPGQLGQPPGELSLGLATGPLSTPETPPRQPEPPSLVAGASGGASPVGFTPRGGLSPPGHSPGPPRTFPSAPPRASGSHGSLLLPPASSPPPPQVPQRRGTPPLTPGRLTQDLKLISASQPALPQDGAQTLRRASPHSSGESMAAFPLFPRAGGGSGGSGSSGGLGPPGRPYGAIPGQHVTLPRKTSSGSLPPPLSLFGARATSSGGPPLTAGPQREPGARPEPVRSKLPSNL
SMILES,pIC50 [1],microsomal CLint [3] [µL/min/mg],pIC50 (Cytochrome P450 2D6),Drug metabolism (Liver microsomes),pIC50 [4],also measured
CC(C)(C)NC(=O)NCCN1CCN(CC(=O)NC23CC4CC(CC(C4)C2)C3)CC1,6.30,100,< 4.70,,< 4.48,Kp uu at 4 h [2]: 0.02
CC(C)(C)NC(=O)NCCN1CCOC(CNC(=O)c2cc(Cl)cc(Cl)c2)C1 (configuration not stated),5.48,47,< 4.70,Active,< 4.48,
CC(C)(C)C(=O)NCCCN1CCN(CC(=O)NC23CC4CC(CC(C4)C2)C3)CC1,5.89,,,,,
CC(C)(C)NC(=O)NCCN1CCN(CC(=O)Nc2cc(Cl)cc(Cl)c2)CC1,6.52,29,5.10,,5.80,
CC(C)(C)NC(=O)NCCN1CCC(CNC(=O)c2cc(Cl)cc(Cl)c2)C1 (configuration not stated),6.40,< 5,6.00,Active,5.24,
CC(C)(C)NC(=O)NCCN1CCCC(CNC(=O)c2cc(Cl)cc(Cl)c2)C1 (configuration not stated),6.30,16,5.80,Not Active,,
CC(C)(C)OC(=O)NCCN1CCN(CC(=O)NC23CC4CC(CC(C4)C2)C3)CC1,5.92,,,,,
O=C(CN1CCN(CCC2CCOCC2)CC1)NC12CC3CC(CC(C3)C1)C2,,,,,,Kp uu at 4 h [2]: 1.2
CC(C)(C)NC(=O)CN1CCN(CC(=O)NC23CC4CC(CC(C4)C2)C3)CC1,6.00,,,,,Kp uu at 4 h [2]: 0.4
CC(C)(C)NC(=O)NCCN1CC(NC(=O)c2cc(Cl)cc(Cl)c2)C1,6.10,4,5.35,Active,,

# Second part, led by results:
pIC50 [1],microsomal CLint [3] [µL/min/mg],pIC50 (Cytochrome P450 2D6),Drug metabolism (Liver microsomes),SMILES,pIC50 [4],also measured
5.31,,,,CC(C)(C)NCCN1CCN(CC(=O)NC23CC4CC(CC(C4)C2)C3)CC1,,
6.05,,,,CC(C)(C)CS(=O)(=O)NCCN1CCN(CC(=O)NC23CC4CC(CC(C4)C2)C3)CC1,,Kp uu at 4 h [2]: 0.3
6.30,48,5.08,Active,CC(C)(C)NC(=O)NCCN1CCCC(NC(=O)c2cc(Cl)cc(Cl)c2)C1 (configuration not stated),5.39,
5.62,,,,CC(C)(C)S(=O)(=O)CCCN1CCN(CC(=O)NC23CC4CC(CC(C4)C2)C3)CC1,,Kp uu at 4 h [2]: 0.3
5.52,,,,CC(C)(C)C(=O)NCCN1CCN(CC(=O)NC23CC4CC(CC(C4)C2)C3)CC1,,
6.30,< 5,5.47,Not Active,CC(C)(C)NC(=O)NCCN1CCC(CNC(=O)c2cc(Cl)cc(Cl)c2)CC1,4.89,
5.92,,,,CC(C)(C)NC(=O)NCCCN1CCN(CC(=O)NC23CC4CC(CC(C4)C2)C3)CC1,,
6.10,15,5.59,Active,CC(C)(C)NC(=O)NCCN1CCC(NC(=O)c2cc(Cl)cc(Cl)c2)C1 (configuration not stated),5.18,
6.22,7,4.89,Not Active,CC(C)(C)NC(=O)NCCN1CCC(CO)(CNC(=O)c2cc(Cl)cc(Cl)c2)CC1,< 4.48,pIC50 [5]: < 4.50; clearance [6]: 17 mL/min/kg; pIC50 [7]: 5.92; pIC50 [8]: < 4.48; pIC50 [9]: < 4.48; solubility [10]: 460 µM; Activity (Canis familiaris): Dose-dependent effect; pIC50 [11]: < 4.48; bioavailability [12]: 22%; pIC50 [13]: < 4.48
6.22,6,4.85,Active,CC(C)(C)NC(=O)NCCN1CCC(O)(CNC(=O)c2cc(Cl)cc(Cl)c2)CC1,< 4.48,
,56.5,7.20,Active,COCC(=O)O[C@]1(CCN(C)CCCc2nc3ccccc3[nH]2)CCc2cc(F)ccc2[C@@H]1C(C)C [MIBEFRADIL],,
